Patent US20240425463A1, “PROCESS FOR MANUFACTURING A DIPHENYLPHRAZINE DERIVATIVE” (ACTELION PHARMACEUTICALS LTD, priority 2021, published 2024)
Where a name gives a salt, the structure may show the parent alone.

Columns and labels:
[1] = Feasibility pK rat study (LAI potential of aqueous micro-suspensions, IM); assay type: in vivo; settings: 50 mg/kg, aqueous micro-suspension 125 mg/mL; for long-acting release profile (yes/no): citrate buffer pH 5, FIG. 9
Experimental: For this study, aqueous micro-suspensions of Selexipag, {4-[(5,6-diphenylpyrazin-2-yl)(propan-2-yl)amino]butoxy}acetic acid and calcium; {4-[(5,6-diphenylpyrazin-2-yl)(propan-2-yl)amino]butoxy}acetate were prepared. An overview of the design of the study can be found in Table 1.
Release profiles and mean AUC of the different formulations are depicted in FIG. 9.

[2] = Solubility in water / aqueous media and dissolution rate; assay type: physicochemical; settings: for solubility: water / aqueous media
[3] = tested on: pulmonary arterial hypertension; settings: phase III, patients with pulmonary arterial hypertension; cited from earlier work
[4] = Physical stability of solid form on storage (7 days, humidity); assay type: physicochemical
[5] = Hygroscopicity (change in mass between 0 and 90% RH); assay type: physicochemical
[6] = 7 days storage at 25° C./97% RH
[7] = 7 days storage at 40° C./75% RH

| Compound | long-acting release profile (yes/no) [1] | dissolution rate [2] | solubility [2] | physical stability after storage [4, 6] | physical stability after storage [4, 7] | further results |
| --- | --- | --- | --- | --- | --- | --- |
| CC(C)N(CCCCOCC(=O)O)c1cnc(-c2ccccc2)c(-c2ccccc2)n1 [Ca-salt of ACT-333679, calcium; {4-[(5,6-diphenylpyrazin-2-yl)(propan-2-yl)amino]butoxy}acetate] | – | – | – | – | – | duration of long-acting release profile ([1]; FIG. 9): up to 336 hours; time until which AUC increases ([1]; FIG. 9): ≤ 720 h; plasma concentrations compared to both other groups ([1]; PVP K17 citrate buffer, FIG. 9): significant lower plasma concentrations; solubility ([2]; listed as calcium salt of selexipag metabolite): low solubility in water; solubility ([2]; {4-[(5,6-diphenylpyrazin-2-yl)(propan-2-yl)amino]butoxy}acetate): low solubility in aqueous media |
| CC(C)N(CCCCOCC(=O)O)c1cnc(-c2ccccc2)c(-c2ccccc2)n1 [Selexipag metabolite, 2-(4-((5,6-diphenylpyrazin-2-yl)(isopropyl)amino)butoxy)acetic acid] | did not demonstrate a long-acting release profile | high | high | – | – | – |
| CC(C)N(CCCCOCC(=O)NS(C)(=O)=O)c1cnc(-c2ccccc2)c(-c2ccccc2)n1 [Selexipag, 2-{4-[(5,6-diphenylpyrazin-2-yl)(propan-2-yl)amino]butoxy}-N-(methanesulfonyl)acetamide] | did not demonstrate a long-acting release profile | high | high | – | – | risk of the primary composite end point of death or a complication related to pulmonary arterial hypertension vs placebo [3]: significantly lower |
| Calcium; {4-[(5,6-diphenylpyrazin-2-yl)(propan-2-yl)amino]butoxy}acetate [Amorphous Form] | – | – | – | physically stable | physically stable | – |
| calcium; {4-[(5,6-diphenylpyrazin-2-yl)(propan-2-yl)amino]butoxy}acetate [Form 2] | – | – | – | physically stable | physically stable | hygroscopicity [5]: slightly hygroscopic; reversible change in mass ([5]; between 0 and 90% RH): 2% |
